In ChEMBL document CHEMBL4270575, “Lead-like Drugs: A Perspective” (J Med Chem, 2018):

Assays:
[1] = biological target: T1, 3',5'-cyclic-AMP phosphodiesterase 4B (Homo sapiens, UniProt Q07343); assay: Inhibition of PDE4B2 (unknown origin)
[2] = biological target: 3',5'-cyclic-AMP phosphodiesterase 4C (Homo sapiens, UniProt Q08493); assay: Inhibition of PDE4C1 (unknown origin)
[3] = biological target: T1, 3',5'-cyclic-AMP phosphodiesterase 4B; assay: Inhibition of PDE4B1 (unknown origin)
[4] = biological target: 3',5'-cyclic-AMP phosphodiesterase 4A (Homo sapiens, UniProt P27815); assay: Inhibition of PDE4A1A (unknown origin)
Sequence of 3',5'-cyclic-AMP phosphodiesterase 4A (P27815 whole entry): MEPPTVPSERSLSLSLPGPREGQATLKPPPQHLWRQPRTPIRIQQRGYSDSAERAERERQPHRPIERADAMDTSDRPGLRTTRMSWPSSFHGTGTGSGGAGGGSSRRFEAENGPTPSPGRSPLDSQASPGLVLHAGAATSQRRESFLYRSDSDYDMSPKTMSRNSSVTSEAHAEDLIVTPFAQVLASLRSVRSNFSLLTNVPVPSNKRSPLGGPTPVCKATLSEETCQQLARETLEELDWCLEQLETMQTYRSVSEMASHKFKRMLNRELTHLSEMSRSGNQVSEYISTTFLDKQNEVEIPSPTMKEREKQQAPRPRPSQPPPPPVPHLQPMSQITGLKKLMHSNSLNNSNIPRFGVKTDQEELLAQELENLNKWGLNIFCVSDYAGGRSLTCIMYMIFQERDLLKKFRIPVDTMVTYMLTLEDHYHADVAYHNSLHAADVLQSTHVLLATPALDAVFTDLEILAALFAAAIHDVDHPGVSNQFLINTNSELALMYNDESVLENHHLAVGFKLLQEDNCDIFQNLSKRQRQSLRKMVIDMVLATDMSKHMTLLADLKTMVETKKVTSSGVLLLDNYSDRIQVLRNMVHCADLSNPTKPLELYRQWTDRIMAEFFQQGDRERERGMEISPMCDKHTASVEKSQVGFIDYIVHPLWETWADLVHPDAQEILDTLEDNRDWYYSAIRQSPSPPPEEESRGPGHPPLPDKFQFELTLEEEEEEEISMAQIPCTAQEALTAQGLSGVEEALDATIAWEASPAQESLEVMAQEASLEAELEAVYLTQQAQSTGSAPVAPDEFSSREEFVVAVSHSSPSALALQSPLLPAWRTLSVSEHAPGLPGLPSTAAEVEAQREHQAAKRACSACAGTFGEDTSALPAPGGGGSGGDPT

[5] = biological target: 3',5'-cyclic-AMP phosphodiesterase 4D (Homo sapiens, UniProt Q08499); assay: Inhibition of PDE4D7 (unknown origin)
Sequence of 3',5'-cyclic-AMP phosphodiesterase 4D (Q08499 whole entry): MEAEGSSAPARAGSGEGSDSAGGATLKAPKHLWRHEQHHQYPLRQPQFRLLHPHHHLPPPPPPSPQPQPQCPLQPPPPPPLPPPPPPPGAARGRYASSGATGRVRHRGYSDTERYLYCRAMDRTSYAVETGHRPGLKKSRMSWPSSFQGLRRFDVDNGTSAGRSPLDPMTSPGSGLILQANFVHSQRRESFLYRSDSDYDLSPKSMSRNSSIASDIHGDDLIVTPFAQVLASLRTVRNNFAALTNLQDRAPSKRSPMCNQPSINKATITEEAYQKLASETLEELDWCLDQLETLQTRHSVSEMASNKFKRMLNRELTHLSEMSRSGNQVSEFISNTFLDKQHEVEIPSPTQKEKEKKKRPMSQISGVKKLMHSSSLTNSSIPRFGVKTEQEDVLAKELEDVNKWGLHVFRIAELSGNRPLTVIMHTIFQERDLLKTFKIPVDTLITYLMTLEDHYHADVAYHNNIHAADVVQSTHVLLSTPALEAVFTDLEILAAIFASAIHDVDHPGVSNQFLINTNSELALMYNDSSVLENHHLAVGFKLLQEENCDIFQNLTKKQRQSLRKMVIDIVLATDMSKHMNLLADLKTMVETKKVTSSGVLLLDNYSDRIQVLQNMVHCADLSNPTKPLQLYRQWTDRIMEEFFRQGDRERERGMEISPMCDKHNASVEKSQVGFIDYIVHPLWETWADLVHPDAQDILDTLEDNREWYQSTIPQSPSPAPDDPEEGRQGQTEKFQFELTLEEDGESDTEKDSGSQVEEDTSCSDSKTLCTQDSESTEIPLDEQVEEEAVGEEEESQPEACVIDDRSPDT

T1 sequence (Q07343 whole entry): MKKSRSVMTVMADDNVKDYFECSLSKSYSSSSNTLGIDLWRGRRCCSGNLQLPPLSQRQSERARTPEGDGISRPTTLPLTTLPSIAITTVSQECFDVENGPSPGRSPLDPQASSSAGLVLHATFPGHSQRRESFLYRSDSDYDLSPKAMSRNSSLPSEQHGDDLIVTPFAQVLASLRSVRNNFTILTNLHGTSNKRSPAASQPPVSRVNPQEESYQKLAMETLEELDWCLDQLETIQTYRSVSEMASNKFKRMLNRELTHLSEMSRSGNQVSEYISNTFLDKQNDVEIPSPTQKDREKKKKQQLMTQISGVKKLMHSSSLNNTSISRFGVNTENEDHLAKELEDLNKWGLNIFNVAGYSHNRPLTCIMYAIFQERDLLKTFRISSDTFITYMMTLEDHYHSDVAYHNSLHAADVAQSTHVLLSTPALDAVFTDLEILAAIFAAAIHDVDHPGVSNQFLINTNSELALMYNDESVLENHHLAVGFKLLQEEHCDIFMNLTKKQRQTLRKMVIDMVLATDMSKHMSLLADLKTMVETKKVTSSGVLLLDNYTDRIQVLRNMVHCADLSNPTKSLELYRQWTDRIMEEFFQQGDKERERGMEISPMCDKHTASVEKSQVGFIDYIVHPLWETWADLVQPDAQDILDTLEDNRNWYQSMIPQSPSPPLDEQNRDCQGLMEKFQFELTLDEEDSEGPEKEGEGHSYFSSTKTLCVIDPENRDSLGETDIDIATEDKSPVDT
Sequence of 3',5'-cyclic-AMP phosphodiesterase 4C (Q08493 whole entry): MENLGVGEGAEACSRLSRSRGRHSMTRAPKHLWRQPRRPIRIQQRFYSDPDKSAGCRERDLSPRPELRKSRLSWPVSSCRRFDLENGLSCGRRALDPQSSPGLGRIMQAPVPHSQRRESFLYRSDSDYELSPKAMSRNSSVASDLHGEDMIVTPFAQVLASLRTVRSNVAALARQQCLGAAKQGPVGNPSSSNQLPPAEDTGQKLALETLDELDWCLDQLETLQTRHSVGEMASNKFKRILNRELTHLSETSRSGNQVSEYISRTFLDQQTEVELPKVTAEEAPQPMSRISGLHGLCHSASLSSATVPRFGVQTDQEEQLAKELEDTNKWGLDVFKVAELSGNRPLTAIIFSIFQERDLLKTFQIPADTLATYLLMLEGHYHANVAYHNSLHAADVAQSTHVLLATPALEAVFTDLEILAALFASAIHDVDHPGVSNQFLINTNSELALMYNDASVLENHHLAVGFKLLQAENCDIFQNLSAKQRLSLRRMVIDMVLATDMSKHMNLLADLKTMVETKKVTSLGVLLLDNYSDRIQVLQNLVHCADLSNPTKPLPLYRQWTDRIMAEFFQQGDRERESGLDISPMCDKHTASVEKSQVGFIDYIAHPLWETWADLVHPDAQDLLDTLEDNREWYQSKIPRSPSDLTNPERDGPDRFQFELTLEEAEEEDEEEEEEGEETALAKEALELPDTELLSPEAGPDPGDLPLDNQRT

IC50 [1]: 55 to 340 nM
IC50 [2]: 55 to 340 nM
IC50 [3]: 55 to 340 nM
IC50 [4]: 55 to 340 nM
IC50 [5]: 55 to 340 nM
SMILES: N#Cc1ccc(Oc2ccc3c(c2)COB3O)cc1 [CRISABOROLE]
